{"source": "patent US9863953B2", "about": "“Method for determining prognosis of cancer” (KYOTO UNIVERSITY, priority 2013, dated 2018)", "key": {"Rho": {"tested_on": "Rho", "experiment": "Active Rho (GTP-Rho) pull-down assay in RKO cells", "assay_type": "cell-based, human", "description": "GTP-Rho was pulled-down and detected by using Rho activation assay kit (Thermo) according to the manufacturers' protocol. Briefly, tissues or CRC cells were lysed with lysis buffer, and GTP-Rho in the lysates was pulled-down using Rhotekin and detected by anti-Rho antibody in western analysis.\n(§1) Recombinant DLL4 (rDLL4) (R&D) was resuspended with PBS. For scratch and GTP-Rho pull-down assays, 1 μg was put into 6-well culture plate to coat its surface with rDLL4 at 0.1 μg/cm^2. For q-RT-PCR assays, the plate surface was coated with rDLL4 at 0.1-1 μg/cm^2. After overnight incubation at 4-degree, the plates were washed once with PBS and plated with CRC cells. For expression analysis of HES1 and DAB1, cells were lysed and mRNA was extracted after four hours.\n(§2) Cultured CRC cells were washed with PBS, treated with 10 mM EDTA in PBS for 2 minutes, and incubated again in culture media. […] After incubation for defined period, cells were lysed and cleaved Notch and GTP-Rho was detected. DAPT (Calbiochem) were applied to cultured CRC cells to inhibit its γ-secretase activity."}, "HCT116 cells [1]": {"tested_on": "HCT116 cells", "experiment": "Attachment assay of CRC cells to lung endothelial cell layer", "assay_type": "cell-based, human", "description": "Attachment assay was performed according to the established protocol {Reymond, 2012}. Briefly, human lung endothelial cells were plated onto collagen-coated dish. After they reached confluent to form a layer, EGFP-labeled CRC cells were plated onto it. Fifteen minutes later, floating cells were washed with PBS, and the numbers of CRC cells adhering to the endothelial layer were counted under a fluorescent microscope."}, "DAB1": {"tested_on": "DAB1", "experiment": "DAB1 mRNA quantitative RT-PCR in LS174T cells on rDLL4", "assay_type": "cell-based, human", "description": "as §1\nTaqMan primers/probes for quantification of HES1, DAB1, ABL1, and ABL2 mRNAs were purchased from ABI. ChIP analyses were performed by using CRC cells and anti-Rbpj (Institute of Immunology) and anti-NICD (Cell Signaling Technology) antibodies according to published protocol (Kakizaki et al., 2010). Precipitated fragments of genomic DNA were tested for enrichment of promoter regions of HES1 gene by SYBR green (ABI) using hHES1ChIP.F ([…]) (SEQ ID NO: 4) and hHES1ChIP.R ([…]) (SEQ ID NO: 5) primers that sandwich high affinity binding sequence of Rbpj. Similarly, enrichment of DAB1 promoter fragments was quantified by hDAB1ChIP.F2 ([…]) (SEQ ID NO: 6) and hDAB1ChIP.R2 ([…]) (SEQ ID NO: 7) primers."}, "Notch receptor": {"tested_on": "Notch receptor", "experiment": "Notch receptor cleavage (NICD) after EDTA treatment, IP-western", "assay_type": "cell-based, human", "conditions": "10 mM EDTA; anti-Notch1 (C-term) antibody", "description": "as §2\nABL1B cDNA was prepared from cDNA pool of human colon and tagged with hemaglutinin (HA) sequence to construct ABL1B-HA. The wild-type cDNA was mutagenized by QuikChange Lightning Multi Site-Directed Mutagenesis Kit (Agilent) to derive kinase-dead ABL1B(K290R)-HA mutant. These ABL1B constructs were placed into pEFBosneo expression vector (provided by Shigekazu Nagata, Kyoto University, Japan). DAB1-Flag cDNA was inserted into pcDNA3 (Invitrogen). TRIO cDNA (provided by Anne Debant, CRBM-CNRS, France) was tagged with T7 sequence and inserted into pCX expression vector carrying CAG promoter and rabbit β-globin poly(A) (provided by Masaru Okabe, Osaka University, Japan). NICD-Myc expression vector was provided by Tasuku Honjo, Kyoto University, Japan. These expression vectors were transfected into CRC or HEK293T cells using Lipofectamine LTX (Invitrogen). Sixteen hours post-transfection, the cells were lysed in lysis buffer (10 mM Tris-Cl, 1 mM EDTA, 150 mM NaCl and 1% NP-40). The supernatants were mixed with agarose conjugated with anti-HA, Flag, T7, or Myc antibodies (MBL). […]"}, "RKO human CRC cells [2]": {"tested_on": "RKO human CRC cells", "experiment": "Matrigel invasion assay, RKO cells", "assay_type": "cell-based", "conditions": "for Matrigel invasion of RKO cells: inhibitor treatment 16 h prior to assay", "description": "(§3) Matrigel invasion assays were performed as previously described using Matrigel (BD) {Sonoshita, 2011}. For TEM assay, human umbilical vein endothelial cell (HUVEC) was seeded in the upper chamber of Transwell (Corning). One day (24 h) later, EGFP-labeled CRC cells were plated onto the layer of HUVEC. After 24 h, CRC cells migrated to the lower side of the membrane were counted under a fluorescent microscope."}, "HCT116 cells [3]": {"tested_on": "HCT116 cells", "experiment": "Matrigel invasion assay, HCT116 cells", "assay_type": "cell-based, human", "description": "as §3"}, "HCT116": {"tested_on": "HCT116", "experiment": "Transendothelial migration (TEM) assay, HCT116 cells", "assay_type": "cell-based, human", "conditions": "HCT116, data not shown", "description": "as §3"}, "RKO human CRC cells [4]": {"tested_on": "RKO human CRC cells", "experiment": "Transendothelial migration (TEM) assay, RKO cells", "assay_type": "cell-based", "conditions": "inhibitor treatment 16 h prior, HUVEC layer, 24 h", "description": "as §3"}, "TRIO": {"tested_on": "TRIO", "experiment": "Cell-free RhoGEF GTP exchange assay", "assay_type": "biochemical, human", "conditions": "TRIO(WT) from imatinib-treated HEK293T transfectants; recombinant RhoA, mant-GTP, 10 min", "description": "First, we transfected HEK293T cells with an expression plasmid for T7-TRIO (either WT, Y2681F or G2699V), and pulled-down each TRIO protein from cell lysates using agarose conjugated with anti-T7 antibody (MBL). Then we mixed the TRIO fraction with recombinant RhoA in the presence of mant-GTP (Cytoskeleton) that emits stronger fluorescence when bound to Rho small GTPases (Rossman et al., 2002)."}, "[5]": {"tested_on": "Apc/Aes compound mutant mice", "experiment": "Tumor invasion histopathology in Apc/Aes compound mutant mice", "assay_type": "in vivo, mouse", "conditions": "50 mg/kg/day i.p. for 9 weeks", "description": "Apc^+/Δ716 mutant mice were generated and maintained as described previously {Oshima, 1995}. Apc^+/Δ716Aes^Floxed/FloxedvCre^ERT2 (abbreviated as Apc/Aes) mice were constructed as reported to knockout Aes in Apc^+/Δ716 mice by virtue of Cre^ERT2 whose expression is driven by intestinal epithelium-specific villin promoter {Sonoshita, 2011}. Rbpj floxed allele was constructed as reported {Han, 2002}, obtained from RIKEN BRC, and crossed with Apc/Aes mice to derive Apc^+/Δ716Aes^Floxed/FloxedRbpj^Floxed/FloxedvCre^ERT2 (Apc/Aes/Rbpj) mice. Dab1 floxed allele was constructed (Imai et al., in preparation) and crossed with Apc/Aes mice to obtain Apc^+/Δ716Aes^Floxed/FloxedDab1^Floxed/FloxedvCre^ERT2 (Apc/Aes/Dab1) mice. Tumor histopathology in compound mutant mice was analyzed at 12 weeks of age. […] Total of ˜100 tumors with diameters larger than 2 mm from 5 mice were scored for each mutant genotype. CRC cell lines were obtained from ATCC. Upon transplantation into the rectal smooth muscle, CRC cells formed a visible primary tumor within a week. Six weeks later, mice were euthanized and examined for metastatic foci under a fluorescent microscope (Leica). All animal experiments were conducted according to the protocol approved by the Animal Care and Use Committee of Kyoto University."}}, "note": "Entries after “also recorded” stand apart in the source; their conditions may differ.", "data": [{"molecule": "C[C@H](NC(=O)Cc1cc(F)cc(F)c1)C(=O)N[C@H](C(=O)OC(C)(C)C)c1ccccc1", "note": "[DAPT]", "values": [{"measurement": "Rho activation (GTP-Rho) after Notch receptor activation with EDTA", "setting": "Rho; RKO cells, 10 μM DAPT for 12 h, then 10 mM EDTA", "value": "inhibited; also recorded: Suppression"}, {"measurement": "Number of CRC cells remaining attached to the EC layer", "setting": "HCT116 cells [1]; HCT116 treated 2 hours, washing at 15 min post plating", "value": "reduced"}, {"measurement": "EC adhesion of CRC cells with RBPJ knocked-down", "setting": "HCT116 cells [1]; RBPJ-knockdown HCT116, DAPT 2 hours", "value": "prevented"}, {"measurement": "DAB1 mRNA expression induced by rDLL4", "setting": "DAB1; LS174T, 10 μM DAPT for 24 h, rDLL4-coated dishes, 4 h", "value": "inhibited"}, {"measurement": "Cleaved Notch receptor (NICD) upon EDTA treatment", "setting": "Notch receptor", "value": "blocked; also recorded: inhibited"}]}, {"molecule": "CCN(CC)CCCC(C)Nc1nc(C)cc(Nc2ccc3nc(C)cc(N)c3c2)n1", "note": "(centres unmarked) [NSC23766]", "values": [{"measurement": "Matrigel invasion of RKO cells", "setting": "RKO human CRC cells [2]", "value": "did not affect"}, {"measurement": "Matrigel invasion of RKO cells", "setting": "RKO human CRC cells [2]; listed as NSC27366", "value": "Little effect"}]}, {"molecule": "CC(C)(C)n1nc(-c2ccc(Cl)cc2)c2c(N)ncnc21", "note": "[PP2]", "values": [{"measurement": "effect on the RKO cell invasion in culture", "setting": "RKO human CRC cells [2]; RKO cell invasion in culture, FIG. 10A", "value": "~20", "unit": "%"}, {"measurement": "Matrigel invasion of RKO cells", "setting": "RKO human CRC cells [2]", "value": "only a minor inhibition"}, {"measurement": "Matrigel invasion", "setting": "HCT116 cells [3]; PP2 at 10 μm, FIG. 10A", "value": "only a minor effect"}]}, {"molecule": "C[C@@H](N)[C@H]1CC[C@H](C(=O)Nc2ccncc2)CC1", "note": "[Y-27632]", "values": [{"measurement": "Transendothelial migration (TEM) of HCT116 cells", "setting": "HCT116", "value": "suppressed"}, {"measurement": "Transendothelial migration (TEM) of RKO cells", "setting": "RKO human CRC cells [4]", "value": "suppresses"}, {"measurement": "Matrigel invasion of RKO cells", "setting": "RKO human CRC cells [2]", "value": "suppresses"}, {"measurement": "Matrigel invasion of HCT116 cells", "setting": "HCT116 cells [3]; HCT116, data not shown", "value": "suppressed"}]}, {"molecule": "Cc1nc(Nc2ncc(C(=O)Nc3c(C)cccc3Cl)s2)cc(N2CCN(CCO)CC2)n1.O", "note": "[dasatinib, N-(2-chloro-6-methylphenyl)-2-[[6-[4-(2-hydroxyethyl)-1-piperazinyl]-2-methyl-4-pyrimidinyl]amino]-5-thiazole carboxamide monohydrate]", "values": [{"measurement": "Matrigel invasion of RKO cells", "setting": "RKO human CRC cells [2]", "value": "suppressed the invasion significantly"}, {"measurement": "HCT116 cell invasion in Matrigel", "setting": "HCT116 cells [3]; dasatinib at 0.01 μm, FIG. 10A", "value": "tight suppression"}]}, {"molecule": "Cc1ccc(NC(=O)c2ccc(CN3CCN(C)CC3)cc2)cc1Nc1nccc(-c2cccnc2)n1", "note": "[imatinib, 4-(4-methylpiperazin-1-ylmethyl)-N-[4-methyl-3-(4-(pyridin-3-yl)-pyrimidin-2-ylamino-)phenyl]-benzamide]", "values": [{"measurement": "Rho activation (GTP-Rho) induced by EDTA", "setting": "Rho; RKO cells, pull-down 5 minutes after EDTA, dose-dependent", "value": "blocked; also recorded: inhibits"}, {"measurement": "Capacity of Rho activation (RhoGEF activity) of TRIO(WT) purified from imatinib-treated cells", "setting": "TRIO", "value": "significantly decreased"}, {"measurement": "Matrigel invasion of RKO cells", "setting": "RKO human CRC cells [2]", "value": "blocks"}, {"measurement": "tumor size or number", "setting": "[5]", "value": "without changing"}, {"measurement": "CRC invasion (depth of tumor invasion)", "setting": "[5]; 50 mg/kg/day", "value": "significant suppression; also recorded: suppresses"}]}, {"molecule": "rDLL4: recombinant extracellular domain of Notch ligand DLL4 (R&D), immobilized on dish surface", "values": [{"measurement": "Rho activation (GTP-Rho)", "setting": "Rho; cultured CRC cells on dishes coated with rDLL4", "value": "activated"}, {"measurement": "DAB1 mRNA expression", "setting": "DAB1; LS174T on immobilized rDLL4 0.1-1 μg/cm^2, 4 h, dose-dependent", "value": "increased; also recorded: induces"}]}]}
